According to ChEMBL document CHEMBL1152011, “The first protoberberine alkaloid analogue with in vivo antimalarial activity” (Bioorg Med Chem Lett, 1994):
The source made the active and inactive calls. The calls are words filed in the database; no cut-off is given here.

How the values were obtained:
Type in all cases: functional, organism-based
Plasmodium falciparum [1] = assay: In vitro inhibition of multidrug-resistant Plasmodium falciparum K1; […]
Mus musculus = assay: In vivo antimalarial activity against Plasmodium chabaudi in BALB/c mice (Mus musculus) at a dose of 0.25 mg/kg; active; set-up: dose 0.25 mg/kg
Plasmodium falciparum [2] = assay: In vitro inhibition of multidrug-resistant Plasmodium falciparum K1

For `COc1cc2c(cc1OC)-c1c(N)c3cc(OC)c(OC)cc3c[n+]1CC2.[Cl-]`, the IC50 (Plasmodium falciparum [1]) was 0.8 µg/mL and the Activity (Mus musculus) was “Active”.

`COc1cc2c(cc1OC)-c1cc3c(OC)c(OC)ccc3c[n+]1CC2.[Cl-]` was tested, and the IC50 (Plasmodium falciparum [1]) was 0.8 µg/mL.

With `COc1ccc2cc3[n+](cc2c1OC)CCc1cc2c(cc1-3)OCO2.[Cl-]` [BERBERINE CHLORIDE] the IC50 (Plasmodium falciparum [2]) was 0.36 µg/mL.

`COc1cc2c(cc1OC)-c1cc3cc(OC)c(OC)cc3c[n+]1CC2.[Cl-]` was tested, and the IC50 (Plasmodium falciparum [1]) was 0.8 µg/mL and the Activity (Mus musculus) was “Active”.
